Experimental data as given in patent publication US20250255889A1, “METHODS FOR TREATMENT SELECTION FOR CHRONIC LYMPHOCYTIC LEUKEMIA (CLL)” (The Broad Institute, Inc., priority 2022, published 2025).

Key:
[1] = test system: primary CLL samples (CD19+ and CD5+ cells); assay: High-throughput dynamic BH3 profiling (HT-DBP): drug-induced apoptotic priming (delta priming), cytochrome c release after BH3 peptide; type: cell-based, human; settings: for priming in CLL groups: CLL sample groups compared with normal PBMCs; for drug-induced apoptotic priming: across CLL subtypes, 65 primary CLL samples, 20 hours drug
Outline: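 Primary CLL cells (CD19+/CD5+) are treated with the agent or DMSO carrier, then briefly exposed to a fixed concentration of a promiscuous BH3 peptide such as BIM. Mitochondrial cytochrome c release serves as the priming surrogate. Delta priming is drug-treated priming minus DMSO-treated priming, run in high-throughput format.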

[2] = test system: healthy PBMCs (normal cell types CD14, CD19, CD3); assay: HT-DBP delta priming in healthy donor normal cells; type: cell-based, human; settings: normal peripheral blood mononuclear cells
Method: FIG. 17 provides a heatmap showing median delta priming across healthy donors for the indicated normal cell types (CD14, CD19, and CD3).
The assay was robust, as indicated by an 0.92 median Pearson correlation across replicates (FIGS. 5A, 5B, 6A, and 6B). Additionally, the majority of drugs had greater effect on CLL samples than on healthy PBMCs (p<0.001, paired t-test), supporting their specificity (FIGS. 7A-7C).
Delta-priming was measured for the molecular features listed along the top of FIGS. 14, 17, and 32 using the HT-DBP screen. The molecular features included IGHV subtypes, epitypes, expression subtypes (i.e., expression clusters), mutations in driver genes, and recurrent copy-number events. A feature was included in the heatmap of FIG. 14 only if at least 2 patients in a DBP screen had the feature. Median delta-priming was computed across all BH3 peptides and across all patients within the feature. […] Plots showing molecular features for groups of 65 and 81 patients were also compiled (see FIGS. 19, 20).

[3] = peptide BAD 0.3 uM, feature EC-m3
[4] = peptide MS1 2.5 uM, feature gain_16p11.2
[5] = peptide PUMA 1 uM, feature EC-m2
[6] = peptide PUMA 1 uM, feature loss_6q21

CC1(C)CCC(c2ccc(Cl)cc2)=C(CN2CCN(c3ccc(C(=O)NS(=O)(=O)c4ccc(N[C@H](CCN5CCOCC5)CSc5ccccc5)c(S(=O)(=O)C(F)(F)F)c4)cc3)CC2)C1 [Navitoclax, navitoclax]
priming in CLL groups [1]: potentially therapeutically relevant priming
drug-induced apoptotic priming by expression cluster ([1]; EC-i): more sensitive to navitoclax than any other drug
drug-induced apoptotic priming by expression cluster ([1]; EC-u2 (U-CLL)): most sensitive
direction ([1]; Feature EC-m2): Resistant
direction ([1]; Feature M-CLL): Sensitive
direction ([1]; Feature U-CLL): Resistant
direction ([1]; Feature n-CLL): Resistant
drug-induced apoptotic priming [1]: high priming
direction [1, 3]: Sensitive
direction ([1]; peptide BAD 0.3 uM, feature EC-u1): Resistant
direction ([1]; peptide BAD 0.3 uM, feature M-CLL): Sensitive
direction ([1]; peptide BAD 0.3 uM, feature U-CLL): Resistant
direction ([1]; peptide BAD 0.3 uM, feature loss_3p21.31): Sensitive
direction ([1]; peptide BAD 0.3 uM, feature loss_5p15.33): Sensitive
direction ([1]; peptide BAD 0.3 uM, feature loss_7q36.1): Sensitive
direction ([1]; peptide BAD 0.3 uM, feature loss_8p): Sensitive
direction ([1]; peptide BAD 0.3 uM, feature loss_12p13.31a): Sensitive
direction ([1]; peptide BAD 0.3 uM, feature loss_14q32.12): Sensitive
direction ([1]; peptide BAD 0.3 uM, feature loss_17p13.3): Sensitive
direction ([1]; peptide BAD 0.3 uM, feature n-CLL): Resistant
direction ([1]; peptide BIM 0.01 uM, feature loss_3p21.31): Sensitive
direction ([1]; peptide BIM 0.01 uM, feature loss_7q36.1): Sensitive
direction ([1]; peptide BIM 0.01 uM, feature loss_8p): Sensitive
direction ([1]; peptide BIM 0.01 uM, feature loss_14q32.12): Sensitive
direction ([1]; peptide MS1 2.5 uM, feature MYD88): Sensitive
direction [1, 4]: Sensitive
direction ([1]; peptide MS1 2.5 uM, feature loss_3p21.31): Sensitive
direction ([1]; peptide MS1 2.5 uM, feature loss_7q36.1): Sensitive
direction ([1]; peptide MS1 2.5 uM, feature loss_8p): Sensitive
direction ([1]; peptide MS1 2.5 uM, feature loss_14q32.12): Sensitive
direction [1, 5]: Resistant
direction ([1]; peptide PUMA 1 uM, feature EC-m4): Sensitive
direction [1, 6]: Resistant
direction ([1]; peptide PUMA 1 uM, feature loss_14q32.12): Sensitive
priming response in normal cell groups [2]: minimal priming response

CC1(C)CCC(CN2CCN(c3ccc(C(=O)NS(=O)(=O)c4ccc(NCC5CCOCC5)c([N+](=O)[O-])c4)c(Oc4cnc5[nH]ccc5c4)c3)CC2)=C(c2ccc(Cl)cc2)C1 [Venetoclax, venetoclax]
priming in CLL groups [1]: potentially therapeutically relevant priming
drug-induced apoptotic priming by expression cluster ([1]; EC-m2, within M-CLL ECs): least effective
drug-induced apoptotic priming by expression cluster ([1]; EC-m3, within M-CLL ECs): most effective
direction ([1]; Feature EC-m2): Resistant
direction ([1]; Feature loss_13q14.3): Sensitive
drug-induced apoptotic priming [1]: highly effective
positive delta priming values (rank among drugs) ([1]; across all evaluated BH3 peptides, 42 drugs): top-ten drugs with the highest positive delta priming values
delta priming value of combined treatment ([1]; combined with MS1 peptide (MCL1 inhibitor), relative to alternative treatments): increased delta priming value
direction [1, 3]: Sensitive
direction ([1]; peptide BAD 0.3 uM, feature loss_13q14.3): Sensitive
direction ([1]; peptide BIM 0.01 uM, feature SAMHD1): Sensitive
direction ([1]; peptide MS1 2.5 uM, feature POT1): Sensitive
direction [1, 4]: Sensitive
direction ([1]; peptide MS1 2.5 uM, feature loss_13q14.13): Sensitive
direction [1, 5]: Resistant
direction [1, 6]: Resistant
priming response in normal cell groups [2]: minimal priming response
